Drawing on ChEMBL document CHEMBL1909046, “DrugMatrix in vitro pharmacology data”, this text covers IC50 and Ki for 10 compounds.

Series [1] can be described thus: DRUGMATRIX: Interleukin IL-1 radioligand binding (ligand: [125I] interleukin 1beta). The format is cell membranes, Membrane. To be noted: nih3t3; Not Active = under 50% inhibition at 10 µM.
Series [2] has as its target T1, 5-hydroxytryptamine receptor 2C (Homo sapiens, UniProt P28335).
T1 sequence (P28335 whole entry): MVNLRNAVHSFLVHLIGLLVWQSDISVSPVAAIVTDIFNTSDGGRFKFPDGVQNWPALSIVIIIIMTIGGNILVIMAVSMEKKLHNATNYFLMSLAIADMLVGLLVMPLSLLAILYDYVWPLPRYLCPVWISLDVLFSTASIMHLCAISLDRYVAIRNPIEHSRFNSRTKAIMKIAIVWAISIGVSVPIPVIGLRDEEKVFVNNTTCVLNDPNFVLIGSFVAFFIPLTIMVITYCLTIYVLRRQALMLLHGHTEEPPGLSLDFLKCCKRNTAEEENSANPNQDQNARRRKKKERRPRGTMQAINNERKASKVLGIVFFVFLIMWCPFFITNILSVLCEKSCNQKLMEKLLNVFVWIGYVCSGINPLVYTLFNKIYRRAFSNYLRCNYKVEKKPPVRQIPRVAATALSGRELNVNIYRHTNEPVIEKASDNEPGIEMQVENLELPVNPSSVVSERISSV
As to the kind of experiment: DRUGMATRIX: Serotonin (5-Hydroxytryptamine) 5-HT2C radioligand binding (ligand: [3H] Mesulergine). To be noted: Not Active = under 50% inhibition at 10 µM; for Ki: read-out: Ki. The format is cell membranes, CHO-K1, Membrane.

Series [3] has as its target T2, Cytochrome P450 1A2 (Homo sapiens, UniProt P05177). Also: in other assays of this panel Not Active means under 50% inhibition at 10 µM.
T2 sequence (P05177 whole entry): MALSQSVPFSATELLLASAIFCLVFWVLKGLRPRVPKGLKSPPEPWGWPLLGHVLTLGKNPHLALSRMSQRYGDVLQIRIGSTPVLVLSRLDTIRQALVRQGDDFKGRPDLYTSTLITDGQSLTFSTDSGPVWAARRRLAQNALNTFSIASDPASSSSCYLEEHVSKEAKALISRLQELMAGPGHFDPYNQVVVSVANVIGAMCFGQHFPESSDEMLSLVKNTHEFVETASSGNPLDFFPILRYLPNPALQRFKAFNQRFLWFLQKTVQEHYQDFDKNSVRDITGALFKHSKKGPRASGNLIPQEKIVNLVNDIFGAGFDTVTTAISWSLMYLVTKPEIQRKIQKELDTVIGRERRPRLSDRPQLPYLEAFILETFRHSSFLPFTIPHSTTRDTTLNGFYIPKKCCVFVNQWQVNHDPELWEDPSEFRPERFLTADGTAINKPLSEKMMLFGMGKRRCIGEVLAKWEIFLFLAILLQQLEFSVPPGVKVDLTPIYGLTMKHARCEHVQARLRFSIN
To be noted: bti-tn-5b1-4.

Series [4] is described as follows: DRUGMATRIX: Glutamate, Kainate radioligand binding (ligand: [3H] Kainic acid). Particulars: Not Active = under 50% inhibition at 10 µM. The format is cell membranes, Rattus norvegicus, Wistar, Brain, Membrane.
The target of series [5] is T3, C-C chemokine receptor type 4 (Homo sapiens, UniProt P51679). Also: in other assays of this panel Not Active means under 50% inhibition at 10 µM.
T3 sequence (P51679 whole entry): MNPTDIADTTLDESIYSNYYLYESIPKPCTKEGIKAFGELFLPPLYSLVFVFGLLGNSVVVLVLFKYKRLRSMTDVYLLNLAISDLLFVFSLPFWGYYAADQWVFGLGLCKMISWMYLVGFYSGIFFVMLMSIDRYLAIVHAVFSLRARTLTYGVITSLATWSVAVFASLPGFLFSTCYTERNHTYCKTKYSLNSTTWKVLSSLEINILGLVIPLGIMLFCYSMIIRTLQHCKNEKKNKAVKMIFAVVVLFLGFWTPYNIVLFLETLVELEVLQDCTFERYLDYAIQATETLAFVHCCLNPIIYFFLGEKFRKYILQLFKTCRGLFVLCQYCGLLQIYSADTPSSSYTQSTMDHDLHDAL
The format is cell membranes, Membrane. To be noted: chem-1.

For series [6], the target named is T4, Polyunsaturated fatty acid lipoxygenase ALOX15 (Oryctolagus cuniculus, UniProt P12530).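 Also: inhibition of 15-lipoxygenase enzyme activity measured with linoleic acid as the substrate; in other assays of this panel Not Active means under 50% inhibition at 10 µM.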
T4 sequence (P12530 whole entry): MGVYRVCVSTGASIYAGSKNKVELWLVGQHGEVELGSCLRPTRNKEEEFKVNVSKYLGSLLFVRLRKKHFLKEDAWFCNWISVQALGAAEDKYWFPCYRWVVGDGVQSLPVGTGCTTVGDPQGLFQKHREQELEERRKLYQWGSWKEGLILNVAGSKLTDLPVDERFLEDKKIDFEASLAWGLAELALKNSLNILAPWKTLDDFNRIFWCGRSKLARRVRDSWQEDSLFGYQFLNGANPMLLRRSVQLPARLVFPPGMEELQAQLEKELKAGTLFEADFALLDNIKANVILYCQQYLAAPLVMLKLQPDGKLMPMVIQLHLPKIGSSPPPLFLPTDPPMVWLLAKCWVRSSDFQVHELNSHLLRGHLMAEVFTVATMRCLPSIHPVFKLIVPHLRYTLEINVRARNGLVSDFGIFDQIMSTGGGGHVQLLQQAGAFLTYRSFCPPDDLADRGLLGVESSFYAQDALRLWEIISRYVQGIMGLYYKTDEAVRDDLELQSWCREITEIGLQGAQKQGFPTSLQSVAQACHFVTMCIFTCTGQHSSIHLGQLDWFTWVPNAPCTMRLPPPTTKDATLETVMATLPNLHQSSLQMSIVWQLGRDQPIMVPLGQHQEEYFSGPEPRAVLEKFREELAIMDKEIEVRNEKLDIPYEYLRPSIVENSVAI
The experiment in a line: biochemical. The format is tissue-based, Reticulocytes.

Structures are written as SMILES.

As for `CC(C)NCC(O)c1ccc(O)c(O)c1` (configuration not stated) [ISOPROTERENOL], the half-inhibitory concentration (IC50) – broadly, the concentration that gives 50% inhibition – is “Not Active” in series [1]; “Not Active” in series [2] (cho-k1); “Not Active” in series [3]; “Not Active” in series [4]; “Not Active” in series [5]; 1.77 µM in series [6] (read-out: IC50). Moreover, the inhibitory constant (Ki) result in series [1], in series [3] and in series [4] was “Not Active” throughout.

For the compound `CC(C)Oc1ccc2c(=O)c(-c3ccccc3)coc2c1` [IPRIFLAVONE], the concentration for half-maximal inhibition (IC50) result in series [1], in series [2] (cho-k1), in series [3], in series [4], in series [5] and in series [6] (reticulocytes) was “Not Active” each time. For the same compound, the Ki entry in series [1], in series [3] and in series [4] was “Not Active” throughout.

As for `O=C(O)c1cn(-c2ccc(F)cc2)c2cc(N3CCNCC3)c(F)cc2c1=O` [SARAFLOXACIN], the IC50 result in series [1], in series [2] (cho-k1), in series [3], in series [4], in series [5] and in series [6] (reticulocytes) was “Not Active” throughout. Besides, the Ki result in series [1], in series [3] and in series [4] was “Not Active” in each case.

In the case of `CCN(CC)CCOc1ccc(/C(=C(/Cl)c2ccccc2)c2ccccc2)cc1` [ENCLOMIPHENE], the IC50 in series [2] (read-out: IC50) was 1.27 µM; in series [3], “Not Active”; in series [5], “Not Active”; in series [6] (reticulocytes) it was “Not Active”. The Ki (usually a dissociation constant, usually derived from enzyme kinetics or from competition with a known ligand) in series [2] is 0.666 µM; in series [3], “Not Active”.

Regarding `Cn1c(=O)c2nc[nH]c2n(C)c1=O.O` [THEOPHYLLINE], the IC50 result in series [1], in series [2] (cho-k1), in series [3], in series [4], in series [5] and in series [6] (reticulocytes) was “Not Active” each time. Besides, the inhibitory constant (Ki) entry in series [1], in series [3] and in series [4] was “Not Active” each time.

Turning to `CCN(CC)CC(=O)Nc1c(C)cccc1C` [LIDOCAINE], the IC50 entry in series [1], in series [2] (cho-k1), in series [4], in series [5] and in series [6] (reticulocytes) was “Not Active” throughout. The inhibitory constant (Ki) result in series [1] and in series [4] was “Not Active” each time.

Turning to `CN(C/C=C/C#CC(C)(C)C)Cc1cccc2ccccc12` [TERBINAFINE], the concentration for half-maximal inhibition (IC50) entry in series [1], in series [2] (cho-k1), in series [3], in series [4], in series [5] and in series [6] (reticulocytes) was “Not Active” in each case. The Ki entry in series [1], in series [3] and in series [4] was “Not Active” throughout.

For `CCCCNc1ccc(C(=O)OCCN(C)C)cc1` [TETRACAINE], the IC50 entry was “Not Active” in series [1]; 3.27 µM in series [2] (read-out: IC50); “Not Active” in series [4]; “Not Active” in series [5]; “Not Active” in series [6] (reticulocytes). The Ki result in series [1] is “Not Active”; in series [2], 1.71 µM; in series [4], “Not Active”.

In the case of `CNCCC(Oc1ccc(C(F)(F)F)cc1)c1ccccc1` (configuration not stated) [FLUOXETINE], the concentration for half-maximal inhibition (IC50) result in series [3], in series [5] and in series [6] (reticulocytes) was “Not Active” each time. Besides, the Ki result in series [3] is recorded as “Not Active”.

Consider `COc1c2occc2cc2ccc(=O)oc12` [METHOXSALEN], for which the IC50 entry in series [1], in series [2] (cho-k1), in series [4], in series [5] and in series [6] (reticulocytes) was “Not Active” throughout. The Ki entry in series [1] and in series [4] was “Not Active” in each case.
